From ChEMBL document CHEMBL4052731, “Interconvertible geometric isomers of Plasmodium falciparum dihydroorotate dehydrogenase inhibitors exhibit multiple binding modes” (Bioorg Med Chem Lett, 2017)

Key:
[1] = Inhibition of homologous location truncated N-terminal His-tagged Plasmodium falciparum DHODH expressed in Escherichia coli pyrD Sphi6745 by spectrophotometric analysis
[2] = target: Dihydroorotate dehydrogenase (quinone), mitochondrial (Homo sapiens, UniProt Q02127); assay: Inhibition of homologous location truncated N-terminal His-tagged human DHODH expressed in Escherichia coli pyrD Sphi6745 by spectrophotometric analysis
Chain of Dihydroorotate dehydrogenase (quinone), mitochondrial (Q02127 whole entry, the tested form may be a part): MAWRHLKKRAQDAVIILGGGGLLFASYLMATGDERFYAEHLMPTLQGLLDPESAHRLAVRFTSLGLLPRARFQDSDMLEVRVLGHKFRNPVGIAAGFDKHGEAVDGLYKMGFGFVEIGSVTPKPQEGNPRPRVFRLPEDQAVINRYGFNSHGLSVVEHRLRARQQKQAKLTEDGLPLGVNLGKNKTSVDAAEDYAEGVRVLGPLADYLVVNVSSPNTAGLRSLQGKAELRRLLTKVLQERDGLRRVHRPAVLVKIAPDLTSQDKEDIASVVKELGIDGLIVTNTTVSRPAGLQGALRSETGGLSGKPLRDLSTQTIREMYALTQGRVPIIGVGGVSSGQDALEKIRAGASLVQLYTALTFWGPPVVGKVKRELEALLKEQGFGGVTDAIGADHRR

[3] = Selectivity ratio of IC50 for homologous location truncated N-terminal His-tagged human DHODH to IC50 for homologous location truncated N-terminal His-tagged Plasmodium falciparum DHODH

Row | SMILES | IC50 [1] [µM] | IC50 [2] [µM] | Ratio IC50 [3] | Ki [1] [µM]
1 | CC1(C)OC(=O)C(=CNc2ccc3sc4ccccc4c3c2)C(=O)O1 | > 100 | – | – | –
2 | CCOC(=O)/C(C#N)=C\Nc1ccc2sc3ccccc3c2c1 | 1.2 | – | – | –
3 | CC(=O)C(=CNc1ccc2sc3ccccc3c2c1)C(C)=O | > 100 | – | – | –
4 | CCOC(=O)/C(=C\Nc1ccc2sc3ccccc3c2c1)[N+](=O)[O-] | 0.38 | > 100 | – | 0.15
5 | CCOC(=O)C(=CNc1ccc2c(c1)c1ccccc1n2CC)C(=O)OCC | 4.4 | – | – | –
6 | CCn1c2ccccc2c2cc(NC=C(C(C)=O)C(C)=O)ccc21 | > 100 | – | – | –
7 | CCOC(=O)C(=CNc1ccc2sc3ccccc3c2c1)C(=O)OCC | 0.16 | – | – | 0.02
8 | CCn1c2ccccc2c2cc(NC=C3C(=O)OC(C)(C)OC3=O)ccc21 | > 100 | – | – | –

More lines, main results first:

Row | IC50 [1] [µM] | IC50 [2] [µM] | Ratio IC50 [3] | SMILES | Ki [1] [µM]
9 | 0.094 | > 100 | – | CCOC(=O)/C(=C/Nc1ccc2c(c1)c1ccccc1n2CC)[N+](=O)[O-] | 0.037
10 | 0.28 to 0.44 | – | 1000 | CCOC(=O)/C(C#N)=C\Nc1ccc2c(c1)c1ccccc1n2CC | 0.05
11 | > 100 | – | – | CCOC(=O)/C(C#N)=C(/C)Nc1ccc2c(c1)c1ccccc1n2CC | –
12 | > 100 | – | – | CCOC(=O)/C(C#N)=C(/C)Nc1ccc2sc3ccccc3c2c1 | –
